From patent publication US20250282728A1, “NITROGEN COMPRISING HETEROCYCLIC DERIVATIVES FOR THE TREATMENT OF DISORDERS ASSOCIATED WITH GPR55 RECEPTOR” (Cerevance, Inc., priority 2022, published 2025)

Key:
[1] = target: T1, rat GPR55 (Rattus norvegicus, UniProt F1MAK4); experiment: Ca2+ mobilization assay (FLIPR, Calcium5 dye), rat GPR55; format: cell-based; settings: HEK293 cells co-expressing PK-tagged rat GPR55 and EA-tagged beta-arrestin; intracellular calcium increase
T1 construct: expressed in transfected cells; host or cells: HEK293 (human embryonic kidney) cells
T1 sequence (F1MAK4 1-319): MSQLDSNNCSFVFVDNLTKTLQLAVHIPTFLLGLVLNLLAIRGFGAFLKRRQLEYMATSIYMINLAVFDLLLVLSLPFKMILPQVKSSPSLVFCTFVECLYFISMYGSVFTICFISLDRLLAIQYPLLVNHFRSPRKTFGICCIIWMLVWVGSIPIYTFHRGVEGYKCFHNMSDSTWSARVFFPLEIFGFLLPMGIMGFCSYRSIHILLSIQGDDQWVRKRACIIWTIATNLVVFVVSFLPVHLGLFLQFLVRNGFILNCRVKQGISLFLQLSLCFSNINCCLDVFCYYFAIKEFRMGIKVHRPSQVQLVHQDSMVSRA
Procedure: (§1) This cell-based assay measures the ability of compounds to activate the GPR55 receptor by measuring changes in intracellular calcium levels. HEK293 (human embryonic kidney) cells co-expressing recombinant ProLink (PK) tagged human or rat GPR55 and Enzyme Acceptor (EA) tagged beta-arrestin were seeded into PDL-coated, black-walled clear-bottom 384 well plates in assay buffer (25 mM HEPES, HBSS, 1 mM Probenicid, 0.1% BSA, pH 7.4) containing Calcium5 dye (Molecular Devices). Cells were incubated in suspension with the Calcium5 dye for 1 hour at 37° C., 5% CO2. Dilution series of the compounds in assay buffer were added to the cells in duplicate wells and compound-mediated real-time increases in intracellular calcium concentration were recorded as increased fluorescence using the Molecular Devices FLIPR instrument. Kinetic traces were reduced to a numerical value by subtracting the minimum response from the maximum response.

[2] = target: T2, human GPR55 (Homo sapiens, UniProt Q9Y2T6); experiment: Ca2+ mobilization assay (FLIPR, Calcium5 dye), human GPR55; format: cell-based; settings: HEK293 cells co-expressing PK-tagged human GPR55 and EA-tagged beta-arrestin; intracellular calcium increase
T2 construct: expressed in transfected cells; host or cells: HEK293 (human embryonic kidney) cells
Procedure: as §1

T2 sequence (Q9Y2T6 whole entry): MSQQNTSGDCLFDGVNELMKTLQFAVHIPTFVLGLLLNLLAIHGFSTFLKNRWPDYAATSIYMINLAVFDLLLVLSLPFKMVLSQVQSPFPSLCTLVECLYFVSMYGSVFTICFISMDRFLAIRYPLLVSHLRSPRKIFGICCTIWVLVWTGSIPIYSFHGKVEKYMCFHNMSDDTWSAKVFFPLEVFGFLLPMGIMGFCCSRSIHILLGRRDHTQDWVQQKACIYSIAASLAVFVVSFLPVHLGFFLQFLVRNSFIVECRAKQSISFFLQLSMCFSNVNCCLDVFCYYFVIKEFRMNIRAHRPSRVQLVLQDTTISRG

| SMILES | EC50 [1] | EC50 [2] |
| --- | --- | --- |
| C[C@@H](Nc1cnc(-c2cncc(C=C(F)F)c2)cn1)c1ccc(F)cc1 [Example 34, (R)-5-(5-(2,2-difluorovinyl)pyridin-3-yl)-N-(1-(4-fluorophenyl)ethyl)pyrazin-2-amine] | ≤ 1000 nM | ≤ 50 nM |
| CC(O)c1cncc(-c2ccc(N[C@H](C)c3ccc(F)cc3)nc2)c1 (single isomer, unassigned) [Example 16a] | ≤ 50 nM | ≤ 1000 nM |
| CS(=O)(=O)c1cncc(-c2ccc(NC3CCc4cc(F)ccc43)nc2)c1 (stereo not drawn) [Example 38, N-(5-fluoro-2,3-dihydro-1H-inden-1-yl)-5′-(methylsulfonyl)-[3,3′-bipyridin]-6-amine] | ≤ 50 nM | ≤ 1000 nM |
| C[C@@H](Nc1ncc(-c2cncc(CO)c2)nn1)c1ccc(F)cc1 [Example 41, (R)-(5-(3-((1-(4-fluorophenyl)ethyl)amino)-1,2,4-triazin-6-yl)pyridin-3-yl)methanol] | ≤ 1000 nM | ≤ 200 nM |
| C[C@@H](Nc1cnc(-c2cncc(C(O)C(F)(F)F)c2)cn1)c1ccc(F)cc1 (mixture of isomers) [Example 32, 2,2,2-trifluoro-1-(5-(5-(((R)-1-(4-fluorophenyl)ethyl)amino)pyrazin-2-yl)pyridin-3-yl)ethan-1-ol] | ≤ 50 nM | ≤ 200 nM |
| C[C@@H](Nc1cnc(-c2cnc3oc(=O)n(C)c3c2)cn1)c1ccc(F)cc1 [Example 26, (R)-6-(5-((1-(4-fluorophenyl)ethyl)amino)pyrazin-2-yl)-1-methyloxazolo[5,4-b]pyridin-2(1H)-one] | ≤ 5000 nM | ≤ 1000 nM |
| C[C@@H](Nc1ccc(-c2cncc(C3CC3)c2)cn1)c1ccc(F)cc1 [Example 5, (R)-5′-cyclopropyl-N-(1-(4-fluorophenyl)ethyl)-[3,3′-bipyridin]-6-amine] | ≤ 1000 nM | ≤ 50 nM |
| CC(Nc1cc(F)c(-c2cncc(S(C)(=O)=O)c2)cn1)c1ccc(F)cc1 (single isomer, unassigned) [Example 29b, 4-fluoro-N-(1-(4-fluorophenyl)ethyl)-5′-(methylsulfonyl)-[3,3′-bipyridin]-6-amine] | ≤ 5000 nM | ≤ 1000 nM |
| C[C@@H](Nc1cnc(-c2cncc([S+](C)[O-])c2)cn1)c1ccc(F)cc1 (stereo partly drawn) [Example 23, N-((R)-1-(4-fluorophenyl)ethyl)-5-(5-(methylsulfinyl)pyridin-3-yl)pyrazin-2-amine] | ≤ 5000 nM | ≤ 1000 nM |
| C[C@@H](Nc1cnc(-c2cncc(C(O)C(F)F)c2)cn1)c1ccc(F)cc1 (single isomer, unassigned) [Example 54a] | ≤ 200 nM | ≤ 1000 nM |
| C[C@@H](Nc1cnc(-c2cncc(CCO)c2)cn1)c1ccc(F)cc1 [Example 35, (R)-2-(5-(5-((1-(4-fluorophenyl)ethyl)amino)pyrazin-2-yl)pyridin-3-yl)ethan-1-ol] | ≤ 5000 nM | ≤ 50 nM |
| C[C@@H](Nc1ncc(-c2cncc(S(C)(=O)=O)c2)nn1)c1ccc(F)cc1 [Example 28, (R)-N-(1-(4-fluorophenyl)ethyl)-6-(5-(methylsulfonyl)pyridin-3-yl)-1,2,4-triazin-3-amine] | ≤ 1000 nM | ≤ 50 nM |
| C[C@@H](Nc1ccc(-c2cncc([S+](C)[O-])c2)cn1)c1ccc(F)cc1 (stereo partly drawn) [Example 14, N-((R)-1-(4-fluorophenyl)ethyl)-5′-(methylsulfinyl)-[3,3′-bipyridin]-6-amine] | ≤ 5000 nM | ≤ 200 nM |
| Cc1nc(N[C@H](C)c2ccc(F)cc2)ccc1-c1cncc(S(C)(=O)=O)c1 [Example 22, (R)-N-(1-(4-fluorophenyl)ethyl)-2-methyl-5′-(methylsulfonyl)-[3,3′-bipyridin]-6-amine] | ≤ 5000 nM | ≤ 200 nM |
| CC(Nc1cc(F)c(-c2cncc(S(C)(=O)=O)c2)cn1)c1ccc(F)cc1 (single isomer, unassigned) [Example 29a, 4-fluoro-N-(1-(4-fluorophenyl)ethyl)-5′-(methylsulfonyl)-[3,3′-bipyridin]-6-amine] | ≤ 1000 nM | ≤ 50 nM |
| CC(O)c1cncc(-c2ccc(N[C@H](C)c3ccc(F)cc3)nc2)c1 (single isomer, unassigned) [Example 16b] | ≤ 200 nM | ≤ 50 nM |
| C[C@@H](Nc1cnc(-c2cncc(OC(F)F)c2)cn1)c1ccc(F)cc1 [Example 39, (R)-5-(5-(difluoromethoxy)pyridin-3-yl)-N-(1-(4-fluorophenyl)ethyl)pyrazin-2-amine] | ≤ 1000 nM | ≤ 1000 nM |
| C[C@@H](Nc1ncc(-c2cncc(C=C(F)F)c2)nn1)c1ccc(F)cc1 [Example 40, (R)-6-(5-(2,2-difluorovinyl)pyridin-3-yl)-N-(1-(4-fluorophenyl)ethyl)-1,2,4-triazin-3-amine] | ≤ 5000 nM | ≤ 200 nM |

Now from value to compound:

| EC50 [1] | EC50 [2] | SMILES |
| --- | --- | --- |
| ≤ 5000 nM | ≤ 5000 nM | C[C@@H](Nc1ccc(-c2ccc3c(c2)N(C)C(=O)C3(F)F)cn1)c1ccc(F)cc1 [Example 79, (R)-3,3-difluoro-6-(6-((1-(4-fluorophenyl)ethyl)amino)pyridin-3-yl)-1-methylindolin-2-one] |
| ≤ 5000 nM | ≤ 50 nM | C[C@@H](Nc1cnc(-c2cnnc(C(O)C(F)(F)F)c2)cn1)c1ccc(F)cc1 (stereo partly drawn) [Example 58, 2,2,2-trifluoro-1-(5-(5-(((R)-1-(4-fluorophenyl)ethyl)amino)pyrazin-2-yl)pyridazin-3-yl)ethan-1-ol] |
| ≤ 1000 nM | ≤ 1000 nM | C[C@@H](Nc1ncc(-c2ccc3oc(=O)[nH]c3c2)nn1)c1ccc(F)cc1 [Example 69, (R)-5-(3-((1-(4-fluorophenyl)ethyl)amino)-1,2,4-triazin-6-yl)benzo[d]oxazol-2(3H)-one] |
| ≤ 5000 nM | ≤ 1000 nM | C[C@@H](Nc1ncc(-c2ccc3oc(=O)n(CCO)c3c2)nn1)c1ccc(F)cc1 [Example 65, (R)-5-(3-((1-(4-fluorophenyl)ethyl)amino)-1,2,4-triazin-6-yl)-3-(2-hydroxyethyl)benzo[d]oxazol-2(3H)-one] |
| ≤ 5000 nM | ≤ 1000 nM | C[C@@H](Nc1cnc(-c2cncc(CC(F)(F)F)c2)nn1)c1ccc(F)cc1 [Example 56, (R)-N-(1-(4-fluorophenyl)ethyl)-3-(5-(2,2,2-trifluoroethyl)pyridin-3-yl)-1,2,4-triazin-6-amine] |
| ≤ 1000 nM | ≤ 200 nM | CCn1c(=O)oc2ccc(-c3cnc(N[C@H](C)c4ccc(F)cc4)nn3)cc21 [Example 67, (R)-3-ethyl-5-(3-((1-(4-fluorophenyl)ethyl)amino)-1,2,4-triazin-6-yl)benzo[d]oxazol-2(3H)-one] |
| ≤ 5000 nM | ≤ 1000 nM | C[C@@H](Nc1ncc(-c2ccc3oc(=O)n(CCN(C)C)c3c2)nn1)c1ccc(F)cc1 [Example 71, (R)-3-(2-(dimethylamino)ethyl)-5-(3-((1-(4-fluorophenyl)ethyl)amino)-1,2,4-triazin-6-yl)benzo[d]oxazol-2(3H)-one] |
| ≤ 5000 nM | ≤ 1000 nM | C[C@@H](Nc1ccc(-c2ccc3[nH]c(=O)oc3c2)cn1)c1ccc(F)cc1 [Example 61, (R)-6-(6-((1-(4-fluorophenyl)ethyl)amino)pyridin-3-yl)benzo[d]oxazol-2(3H)-one] |
| ≤ 5000 nM | ≤ 5000 nM | C[C@@H](Nc1ncc(-c2cnc3c(c2)ncn3C)nn1)c1ccc(F)cc1 [Example 83, (R)-N-(1-(4-fluorophenyl)ethyl)-6-(3-methyl-3H-imidazo[4,5-b]pyridin-6-yl)-1,2,4-triazin-3-amine] |
